# Measured values reported in patent publication US7078403B1, “Antiviral agents” (Biota Scientific Management Pty Ltd., priority 1999, dated 2006).
# What was measured:
# HRV type 1A = test: Inhibition of viral cytopathic effect (CPE), visual scoring or neutral red, HRV type 1A in MRC-5 cells; type: cell-based, human rhinovirus; details: for Activity on Rhinovirus Type 1A EC50: HRV type 1A in MRC-5 cells, CPE inhibition; for Activity on Rhinovirus Type 1A SI: selectivity index = CC50 or MTC divided by EC50, HRV type 1A, MRC-5 cells
# [1] = tested on: human embryo lung (MRC-5) cells; test: Cytotoxicity (CC50 or MTC) in uninfected MRC-5 cells; details: unit not given
Structure (SMILES),Activity on Rhinovirus Type 1A EC50 (HRV type 1A),Activity on Rhinovirus Type 1A SI (HRV type 1A),Activity on Rhinovirus Type 1A MTC [1]
C=CCON=Cc1ccc(OCC2CCN(c3ccc(Cl)nn3)CC2)cc1 [Compound 30],0.036 mg/L,>28,>1
CON=Cc1cc(O)cc(OCCC2CCN(c3ccc(Cl)nn3)CC2)c1 [Compound 38],0.69 mg/L,>1.45,>1
CCON=Cc1cccc(OCCC2CCN(c3ccc(C)nn3)CC2)c1 [Compound 46],0.062 mg/L,>16.0,>1
C=CCON=Cc1cccc(OCCC2CCN(c3ccc(C)nn3)CC2)c1 [Compound 47],0.066 mg/L,>15,>1
CON=Cc1cccc(OCCC2CCN(c3ccc(C)nn3)CC2)c1 [Compound 48],0.016 mg/L,>62,>1
CCON=Cc1ccc(OCCC2CCN(c3cccnn3)CC2)cc1 [Compound 49],0.056 mg/L,>17.8,>1
CCO/N=C/c1ccc(OCCC2CCN(c3ccc(Cl)nn3)CC2)cc1OC [Compound 50],0.008 mg/L,>121.7,>1
C=CCON=Cc1ccc(OCCC2CCN(c3ccc(C)nn3)CC2)c(C)c1 [Compound 53],<0.003 mg/L,>208,0.667
CCCON=Cc1ccc(OCCC2CCN(c3ccc(C)nn3)CC2)c(C)c1 [Compound 54],0.007 mg/L,91,0.663
CCON=Cc1ccc(OC2CCN(c3ccc(Cl)nn3)CC2)cc1 [Compound 55],2.68 mg/L,>3,>10
CCON=Cc1ccc(OCCC2CCN(c3ccc(-c4ccccc4)nn3)CC2)cc1 [Compound 56],2.31 mg/L,>3,>10
CCON=Cc1ccc(OCCC2CCN(c3ccc(C(F)(F)F)nn3)CC2)cc1 [Compound 58],0.498 mg/L,>2,>1
Cc1ccc(N2CCC(CCOc3ccc(C=NOCC(F)(F)F)cc3)CC2)nn1 [Compound 59],0.162 mg/L,3.4,0.56
CON=Cc1cccc(OCC2CCN(c3ccc(Cl)nn3)CC2)c1 [Compound 60],0.183 mg/L,>17,>1
CCON=Cc1cccc(OCC2CCN(c3ccc(Cl)nn3)CC2)c1 [Compound 61],0.058 mg/L,>14,>1
C=CCON=Cc1cccc(OCC2CCN(c3ccc(Cl)nn3)CC2)c1 [Compound 62],0.067 mg/L,>14,>1
C=CCON=Cc1ccc(OCCC2CCN(c3ccc(OC)nn3)CC2)cc1 [Compound 63],0.06 mg/L,>15,>1
CCON=Cc1ccc(OCCN2CCN(c3cccnn3)CC2)cc1 [Compound 64],0.05 mg/L,>17,>1
CCON=Cc1cccc(OCCN2CCN(c3cccnn3)CC2)c1 [Compound 65],0.21 mg/L,>4.5,>1
C=CCON=Cc1ccc(OCCN2CCN(c3cccnn3)CC2)cc1 [Compound 66],0.05 mg/L,>18,>1

Structure (SMILES),Activity on Rhinovirus Type 1A EC50 (HRV type 1A),Activity on Rhinovirus Type 1A SI (HRV type 1A),Activity on Rhinovirus Type 1A MTC [1]
CON=Cc1ccc(OCCN2CCN(c3ccc(C)nn3)CC2)cc1 [Compound 67],0.04 mg/L,>20,>1
CCON=Cc1ccc(OCCN2CCN(c3ccc(C)nn3)CC2)cc1 [Compound 68],0.04 mg/L,>25,>1
C=CCON=Cc1ccc(OCCN2CCN(c3ccc(C)nn3)CC2)cc1 [Compound 69],0.18 mg/L,>5,>1
CON=Cc1cccc(OCCN2CCN(c3ccc(C)nn3)CC2)c1 [Compound 70],0.05 mg/L,>16,>1
CCON=Cc1cccc(OCCN2CCN(c3ccc(C)nn3)CC2)c1 [Compound 71],0.05 mg/L,>18,>1
C=CCON=Cc1cccc(OCCN2CCN(c3ccc(C)nn3)CC2)c1 [Compound 72],0.16 mg/L,>6,>1
CON=Cc1ccc(OCCN2CCN(c3ccc(Cl)nn3)CC2)cc1 [Compound 73],0.003 mg/L,>312,>1
C=CCON=Cc1ccc(OCCN2CCN(c3ccc(Cl)nn3)CC2)cc1 [Compound 74],0.02 mg/L,>46,>1
CON=Cc1cccc(OCCN2CCN(c3ccc(Cl)nn3)CC2)c1 [Compound 75],0.01 mg/L,>98,>1
CCON=Cc1cccc(OCCN2CCN(c3ccc(Cl)nn3)CC2)c1 [Compound 76],0.01 mg/L,>98,>1
C=CCON=Cc1cccc(OCCN2CCN(c3ccc(Cl)nn3)CC2)c1 [Compound 77],0.003 mg/L,>279,>1
CCON=Cc1ccc(OCCC2CCN(c3ccc(C(F)(F)F)cn3)CC2)cc1 [Compound 84],0.05 mg/L,>19.6,>1
CCCON=Cc1ccc(OCCC2CCN(c3ccc(C)nn3)CC2)cc1 [Compound 85],0.08 mg/L,>12,>1
C=CCON=Cc1ccc(OCCC2CCN(c3ccc(C)nn3)CC2)cc1 [Compound 87],0.01 mg/L,>51,>1
C#CCON=Cc1ccc(OCCC2CCN(c3ccc(C)nn3)CC2)cc1 [Compound 88],0.005 mg/L,>172,>1
CON=Cc1ccc(OCCCC2CCN(c3ccc(Cl)nn3)CC2)cc1 [Compound 89],0.005 mg/L,>174,>1
CON=Cc1cccc(OCCCC2CCN(c3ccc(Cl)nn3)CC2)c1 [Compound 91],0.02 mg/L,>46,>1
CCON=Cc1cccc(OCCCC2CCN(c3ccc(Cl)nn3)CC2)c1 [Compound 92],0.20 mg/L,>5,>1
CON=Cc1ccc(OCCCC2CCN(c3ccc(C)nn3)CC2)cc1 [Compound 94],0.024 mg/L,>41,>1
CCON=Cc1ccc(OCCCC2CCN(c3ccc(C)nn3)CC2)cc1 [Compound 95],0.30 mg/L,>3,>1
